What is called IC50 is the point on the concentration scale where inhibition reaches its midpoint.

The nature of the experiment: Inhibition of HIV1 YU2 gp120 binding to CD4 expressing Cf2Th-CD4/CCR5 cells assessed as inhibition of viral infection after 48 hrs.
Turning to `CC1(C)Cc2c(sc(NC(=O)C(=O)Nc3ccc(Cl)c(F)c3)c2C#N)C(C)(C)N1` [N1-(4-chloro-3-fluorophenyl)-N2-(3-cyano-5,5,7,7-tetramethyl-4,5,6,7-tetrahydrothieno[2,3-c]pyridin-2-yl)oxalamide], the IC50 is > 100 µM.

As for `O=C(Nc1ccc(Cl)c(F)c1)C(=O)N[C@@H]1CCN(Cc2ccccc2)C1` [(R)-N1-(1-benzylpyrrolidin-3-yl)-N2-(4-chloro-3-fluorophenyl)oxalamide], the IC50 stood at 58.5 µM.

As for `CC1Sc2cc(C(=O)NC3CC(C)(C)NC(C)(C)C3)ccc2NC1=O` (stereo not drawn) [2,2,6,6-tetramethyl-4-(2-methyl-3-oxo-3,4-dihydro-2H-benzo[b][1,4]thiazine-7-carboxamido)piperidinium], the IC50 was > 100 µM.

On to `CC1(C)CC(CNC(=O)C(=O)Nc2ccc(Cl)c(F)c2)CC(C)(C)N1` [N1-(4-chloro-3-fluorophenyl)-N2-((2,2,6,6-tetramethylpiperidin-4-yl)methyl)oxalamide], for which the IC50 is 33 µM.

On to `Cc1ccc(N(C)C)cc1NC(=O)COc1ccc(Cl)cc1` [2-(4-chlorophenoxy)-N-(5-(dimethylamino)-2-methylphenyl)acetamide], for which the IC50 is > 100 µM.

For the molecule `O=C(NCC1CCNCC1)C(=O)Nc1ccc(Cl)c(F)c1` [N1-(4-chloro-3-fluorophenyl)-N2-(piperidin-4-ylmethyl)oxalamide], the IC50 was > 100 µM.

For `CC1(C)CC(NC(=O)C(=O)Nc2ccc(Cl)cc2F)CC(C)(C)N1` [N1-(4-chloro-2-fluorophenyl)-N2-(2,2,6,6-tetramethylpiperidin-4-yl)oxalamide], the IC50 is > 100 µM.

`CCN1CCCC1CNC(=O)C(=O)Nc1ccc(Cl)cc1` (stereo not drawn) [N1-(4-chlorophenyl)-N2-((1-ethylpyrrolidin-2-yl)methyl)oxalamide]: the half-inhibitory concentration (IC50) stood at 58.6 µM.

As to `O=C(Nc1ccc2c(c1)C(=O)NC2=O)c1ccc(Cl)c(Cl)c1` [3,4-dichloro-N-(1,3-dioxoisoindolin-5-yl)benzamide], the IC50 is > 100 µM.

Turning to `CC1(C)O[C@@H](CN)[C@H](CNC(=O)C(=O)Nc2ccc(Cl)c(F)c2)O1` [N1-(((4S,5S)-5-(aminomethyl)-2,2-dimethyl-1,3-dioxolan-4-yl)methyl)-N2-(4-chloro-3-fluorophenyl)oxalamide], the IC50 came out at 76.6 µM.

In the case of `O=C(NCC(c1ccco1)N1CCCC1)C(=O)Nc1ccc(Cl)c(F)c1` (stereo not drawn) [N1-(4-chloro-3-fluorophenyl)-N2-(2-(furan-2-yl)-2-(pyrrolidin-1-yl)ethyl)oxalamide], the IC50 is > 100 µM.

On to `CCNC(=S)N1CCN(CC(=O)Nc2ccc(Br)cc2)CC1` [4-(2-(4-bromophenylamino)-2-oxoethyl)-N-ethylpiperazine-1-carbimidothioic acid], for which the IC50 is > 100 µM.

Take `CC1(C)CC(NC(=O)C(=O)Nc2cccc(OCc3ccccc3)c2)CC(C)(C)N1` [N1-(3-(benzyloxy)phenyl)-N2-(2,2,6,6-tetramethylpiperidin-4-yl)oxalamide]: the IC50 was > 100 µM.

With `O=C(Nc1ccnc(=O)[nH]1)c1sc2cc(Cl)ccc2c1Cl` [3,6-dichloro-N-(2-oxo-1,2-dihydropyrimidin-4-yl)benzo[b]thiophene-2-carboxamide], the IC50 is > 100 µM.

As for `N=c1oc2cc(O)ccc2cc1C(=O)Nc1ccc(Cl)cc1` [N-(4-chlorophenyl)-7-hydroxy-2-imino-2H-chromene-3-carboxamide], the IC50 was > 100 µM.

For `COc1cc(NC(=O)C(=O)NC2CC(C)(C)NC(C)(C)C2)ccc1Cl` [N1-(4-chloro-3-methoxyphenyl)-N2-(2,2,6,6-tetramethylpiperidin-4-yl)oxalamide], the IC50 was > 100 µM.

`CC1(C)CC(NCC(=O)Nc2ccc(Cl)c(F)c2)CC(C)(C)N1` [N-(4-chloro-3-fluorophenyl)-2-(2,2,6,6-tetramethylpiperidin-4-ylamino)acetamide]: the IC50 is > 100 µM.

Regarding `CNS(=O)(=O)Cc1ccc(CNC(=O)C(=O)Nc2ccc(Cl)c(F)c2)cc1` [N1-(4-chloro-3-fluorophenyl)-N2-(4-(N-methylsulfamoylmethyl)benzyl)oxalamide], the IC50 was > 100 µM.

For `CCc1n[nH]c(NC(=O)C(=O)Nc2ccc(Cl)c(F)c2)c1CC` [N1-(4-chloro-3-fluorophenyl)-N2-(3,4-diethyl-1H-pyrazol-5-yl)oxalamide], the IC50 is > 100 µM.

Consider `O=C(Nc1ccc(Cl)c(F)c1)C(=O)NC1CCNC2(CCC2)C1` (stereo not drawn) [N1-(4-chloro-3-fluorophenyl)-N2-(5-azaspiro[3.5]nonan-8-yl)oxalamide], for which the IC50 turned out to be 38.5 µM.

In the case of `O=C(Nc1ccc(Cl)cc1)C(=O)c1c[nH]c2ccccc12` [N-(4-chlorophenyl)-2-(1H-indol-3-yl)-2-oxoacetamide], the 50% inhibitory concentration (IC50) is > 100 µM.

Regarding `CC1(C)CC(NC(=O)C(=O)Nc2ccc(Cl)cc2Cl)CC(C)(C)N1` [N1-(2,4-dichlorophenyl)-N2-(2,2,6,6-tetramethylpiperidin-4-yl)oxalamide], the IC50 is > 100 µM.

As for `O=C(NCC1NCCc2ccccc21)C(=O)Nc1ccc(Cl)c(F)c1` (stereo not drawn) [N1-(4-chloro-3-fluorophenyl)-N2-((1,2,3,4-tetrahydroisoquinolin-1-yl)methyl)oxalamide], the IC50 stood at 50.4 µM.

For `O=C(NCc1[nH]nc2c1CCCCC2)C(=O)Nc1ccc(Cl)c(F)c1` [N1-(4-chloro-3-fluorophenyl)-N2-((1,4,5,6,7,8-hexahydrocyclohepta[c]pyrazol-3-yl)methyl)oxalamide], the half-maximal inhibitory concentration (IC50) was > 100 µM.

For the molecule `O=C(NCC1CCCN(CCO)C1)C(=O)Nc1ccc(Cl)c(F)c1` (stereo not drawn) [N1-(4-chloro-3-fluorophenyl)-N2-((1-(2-hydroxyethyl)piperidin-3-yl)methyl)oxalamide], the IC50 was determined as 27.6 µM.

For the molecule `O=C(CSc1[nH]c(=O)nc2c1CCCC2)Nc1ccc(Cl)cc1` [N-(4-chlorophenyl)-2-(2-oxo-1,2,5,6,7,8-hexahydroquinazolin-4-ylthio)acetamide], the IC50 was > 100 µM.

For `Cc1nn(C)cc1CN(C)CC(=O)Nc1ccc(Br)cc1` [N-(4-bromophenyl)-2-(((1,3-dimethyl-1H-pyrazol-4-yl)methyl)(methyl)amino)acetamide], the IC50 was > 100 µM.

For `CC1(C)CC(NC(=O)C(=O)NCCc2ccc(Cl)cc2)CC(C)(C)N1` [4-(2-(4-chlorophenethylamino)-2-oxoacetamido)-2,2,6,6-tetramethylpiperidinium], the IC50 is > 100 µM.

Consider `CN1CCCN(C(=O)COc2ccc(Cl)cc2)CC1` [4-(2-(4-chlorophenoxy)acetyl)-1-methyl-1,4-diazepan-1-ium], for which the IC50 is > 100 µM.

Consider `CN1CCC(NC(=O)C(=O)Nc2ccc(Cl)c(F)c2)CC1` [N1-(4-chloro-3-fluorophenyl)-N2-(1-methylpiperidin-4-yl)oxalamide], for which the IC50 was > 100 µM.

Turning to `CC(C)N1CCC(NC(=O)C(=O)Nc2ccc(Cl)c(F)c2)CC1` [N1-(4-chloro-3-fluorophenyl)-N2-(1-isopropylpiperidin-4-yl)oxalamide], the IC50 was > 100 µM.

With `CC1(C)CC(NC(=O)CCC(=O)Nc2ccc(Br)cc2)CC(C)(C)N1` [N1-(4-bromophenyl)-N4-(2,2,6,6-tetramethylpiperidin-4-yl)succinamide], the IC50 is > 100 µM.

For the molecule `NC(=O)C1CCN(CCC(=O)Nc2ccc(Br)cc2)CC1` [cis-1-(3-(4-bromophenylamino)-3-oxopropyl)-4-carbamoylpiperidinium], the 50% inhibitory concentration (IC50) is > 100 µM.

Values taken from BindingDB's records for doi:10.1016/j.bmc.2010.11.049 (Bryn Mawr College, 2011).
